# Results published in publication PMC9095466 (Nature, 2022).
# Several values for one entry are separate records, joined by “and”; a condition that tells them apart may be missing. Identical values can stand only once. Counter-ions that a name gives are not always drawn. Like-named read-outs stand apart in the source and are kept apart here.
# Assays:
# SARS-CoV-2 (VIDO) = assay type: cell-based; parameters: plaque assay titre, Figure 2c: unit not given beside the values; conditions: for reduction of viral titre (plaque assay): supernatant of infected Calu-3 cells, vs DMSO-treated infected control; for plaque assay titre, Figure 2c: replicate columns, listed as Cm
# human TMPRSS2 = human TMPRSS2 (Homo sapiens, UniProt O15393); assay: cell-based
# Sequence of human TMPRSS2 (O15393 whole entry): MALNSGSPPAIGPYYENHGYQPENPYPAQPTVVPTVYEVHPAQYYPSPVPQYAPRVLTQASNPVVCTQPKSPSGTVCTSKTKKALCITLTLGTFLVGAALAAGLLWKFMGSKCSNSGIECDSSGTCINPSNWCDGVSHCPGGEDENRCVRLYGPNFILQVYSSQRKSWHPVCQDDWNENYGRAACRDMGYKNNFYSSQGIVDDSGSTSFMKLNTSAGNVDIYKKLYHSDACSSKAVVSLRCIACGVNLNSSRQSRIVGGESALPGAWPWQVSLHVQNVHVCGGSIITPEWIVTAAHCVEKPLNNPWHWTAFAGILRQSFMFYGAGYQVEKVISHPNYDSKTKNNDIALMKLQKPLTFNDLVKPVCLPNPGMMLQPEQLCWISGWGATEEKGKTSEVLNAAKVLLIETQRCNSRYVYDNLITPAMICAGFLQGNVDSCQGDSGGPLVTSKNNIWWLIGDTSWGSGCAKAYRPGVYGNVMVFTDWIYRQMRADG
# [1] = target: T1, Recombinant human matriptase (Homo sapiens, UniProt Q9Y5Y6); assay: Protease selectivity, Ki on recombinant protease; assay type: biochemical
# T1 construct: made in house
# T1 sequence (Q9Y5Y6 1-855): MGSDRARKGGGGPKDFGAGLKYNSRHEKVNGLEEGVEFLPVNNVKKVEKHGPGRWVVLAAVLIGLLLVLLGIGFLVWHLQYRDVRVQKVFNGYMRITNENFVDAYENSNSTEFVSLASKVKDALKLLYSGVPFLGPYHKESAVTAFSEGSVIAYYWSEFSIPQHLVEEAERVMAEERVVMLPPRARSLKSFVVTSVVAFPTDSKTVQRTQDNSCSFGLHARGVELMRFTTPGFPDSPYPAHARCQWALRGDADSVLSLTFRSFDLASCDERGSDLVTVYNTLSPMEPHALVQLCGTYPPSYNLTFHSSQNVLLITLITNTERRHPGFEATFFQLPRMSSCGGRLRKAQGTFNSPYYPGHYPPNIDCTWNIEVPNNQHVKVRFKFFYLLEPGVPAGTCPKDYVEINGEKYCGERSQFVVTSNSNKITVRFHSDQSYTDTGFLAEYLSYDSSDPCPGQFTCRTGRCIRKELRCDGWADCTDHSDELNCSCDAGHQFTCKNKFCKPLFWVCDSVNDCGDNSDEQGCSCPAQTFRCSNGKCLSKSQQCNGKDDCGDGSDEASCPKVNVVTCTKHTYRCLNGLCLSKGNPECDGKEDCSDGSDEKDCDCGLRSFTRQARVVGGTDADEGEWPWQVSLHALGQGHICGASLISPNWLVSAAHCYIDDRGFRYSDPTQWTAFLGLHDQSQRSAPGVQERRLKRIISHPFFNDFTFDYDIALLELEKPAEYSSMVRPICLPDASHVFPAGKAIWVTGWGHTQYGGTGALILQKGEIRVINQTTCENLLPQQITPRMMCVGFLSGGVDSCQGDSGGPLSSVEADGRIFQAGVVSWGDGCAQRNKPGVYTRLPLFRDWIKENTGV
# Recombinant human DESC1 = target: T2, Recombinant human DESC1 (Homo sapiens, UniProt Q9UL52); assay: Protease selectivity, Ki on recombinant protease; assay type: biochemical
# T2 construct: made in house
# T2 sequence (Q9UL52 1-423): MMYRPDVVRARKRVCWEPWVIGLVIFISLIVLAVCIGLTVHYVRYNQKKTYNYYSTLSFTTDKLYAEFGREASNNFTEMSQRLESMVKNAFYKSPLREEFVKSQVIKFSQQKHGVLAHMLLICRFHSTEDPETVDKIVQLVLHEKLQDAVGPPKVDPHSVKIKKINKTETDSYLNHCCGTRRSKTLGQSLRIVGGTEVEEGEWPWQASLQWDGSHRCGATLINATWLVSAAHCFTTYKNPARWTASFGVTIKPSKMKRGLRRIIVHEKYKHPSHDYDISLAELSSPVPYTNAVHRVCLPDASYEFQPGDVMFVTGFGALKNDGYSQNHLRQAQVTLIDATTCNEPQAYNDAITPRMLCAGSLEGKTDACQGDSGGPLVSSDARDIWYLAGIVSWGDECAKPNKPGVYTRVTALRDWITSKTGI
# [2] = test system: SARS-CoV-2 lineage B strain (VIDO); assay: microbe, parasite or virus in culture; assay type: cell-based
# SARS-CoV-2 [3] = test system: SARS-CoV-2; parameters: method as in PMID 32142651, PMID 33844653; conditions: adenovirus hACE2 model; cited from earlier work
# SARS-CoV-2 [4] = test system: SARS-CoV-2; parameters: method as in PMID 33903855; conditions: hospitalized patients with COVID-19; cited from earlier work
# Vero E6 cells = assay: Cytotoxicity assay (Cell Titer-Glo 2.0) in Vero E6 cells; assay type: cell-based; conditions: 10 μM compound, 24 h, relative to vehicle (DMSO 0.01%); single experiments N1-N4; 10 µM
# Method: Calu-3 and Vero E6 cells (2500 or 10,000 cells for samples, 80–20,000 cells for standard curve) were seeded in 96-well plates. Following a 24-h incubation at 37 °C, 5% CO2, cells were washed with D-PBS and compounds added (10 µM) for an additional 24-h incubation. Cellular viability was assessed using Cell Titer-Glo 2.0 Cell Viability Assay (Promega) according to the manufacturer’s instructions. The number of viable cells was extrapolated using the standard curve. Cellular viability in Vero E6 cells was expressed relative (%) to vehicle-treated cells. Data are from four independent experiments (mean ± s.d.).
smiles,measurement,setting,value
"CN(C)C(=O)COC(=O)Cc1ccc(OC(=O)c2ccc(NC(=N)N)cc2)cc1 [Camostat mesylate, reference compound]",reduction of viral titre (plaque assay),SARS-CoV-2 (VIDO); 40 nM,approximately half-log
same,"plaque assay titre, Figure 2c",SARS-CoV-2 (VIDO); 40 nM,1000 (6×) and 11000 (2×) and 20000 and 10000 (2×) and 80000 and 330000 and 30000 and 170000
same,reduction of viral titre (plaque assay),SARS-CoV-2 (VIDO); 200 nM,approximately 1.5 log
same,"plaque assay titre, Figure 2c",SARS-CoV-2 (VIDO); 200 nM,1000 (9×) and 40000 and 10000 (3×) and 130000 and 30000 and 20000
same,TMPRSS2 activity (%),"human TMPRSS2; Figure 1B, single experiments N1-N3, listed as Cm",51.0758% and 41.2255% and 43.3144%
same,inhibition at 0.01 µM,"human TMPRSS2; Vero C1008, 10 nM compound, 24 h, vs untreated/vehicle TMPRSS2-expressing Vero E6 cells, read-out: inhibition of TMPRSS2 activity (reduction of substrate proteolysis)",56%
same,Ki,"[1]; mean ± s.d., max concentration 10 µM, read-out: Ki Matriptase",5.6 ± 1 nM
same,Ki,"[1]; single experiments N1-N3, Figure 1D, read-out: Individual Ki, Matriptase",6.79 nM and 5.15 nM and 4.98 nM
same,Ki,"Recombinant human DESC1; mean ± s.d., max concentration 10 µM, read-out: Ki DESC1",5.8 ± 3.4 nM
same,Ki,"Recombinant human DESC1; single experiments N1-N3, Figure 1D, read-out: Individual Ki, Desc1",7.88 nM and 7.73 nM and 1.85 nM
same,Nucleocapsid,"[2]; Figure 2a, two replicates, DMSO control about 91-94, listed as Cm",8.612 and 24.2399
same,dsRNA,"[2]; Figure 2a, two replicates, DMSO control about 93-95, listed as Cm",17.4079 and 31.7604
same,EC50,"[2]; Severe acute respiratory syndrome coronavirus 2, Calu-3, read-out: SARS-CoV-2 VIDO Nucleocapsid EC50 ± SE",10.6 ± 8.4 nM
same,inhibition at 0.1 µM,"[2]; Severe acute respiratory syndrome coronavirus 2, Calu-3, read-out: inhibition of SARS-CoV-2 infection",> 83%
same,"Figure 2b dose-response, Mean",[2]; log [C] (nM) 0.20412,84.468
same,"Figure 2b dose-response, Mean",[2]; log [C] (nM) 0.90309,76.973
same,"Figure 2b dose-response, Mean",[2]; log [C] (nM) 1.60206,24.9288
same,"Figure 2b dose-response, Mean",[2]; log [C] (nM) 2.30103,0.8428
same,"Figure 2b dose-response, Mean",[2]; log [C] (nM) 3,0.2267
same,"Figure 2b dose-response, Mean",[2]; log [C] (nM) -0.49485,80.5882
same,"Figure 2b dose-response, Mean",[2]; log [C] (nM) -1.19382,94.4767
same,protection against infection,SARS-CoV-2 [3],no significant protection against infection was observed
same,effect on the time to recovery and incidence of death,SARS-CoV-2 [4],no effect
same,% Viability of Vero E6 cells,Vero E6 cells,115.453% and 94.4731% and 96.0284% and 136.615%
